{"source": "patent US8633200B2", "about": "“Inhibitors of human immunodeficiency virus replication” (priority 2010, dated 2014)", "note": "Where a name gives a salt, the structure may show the parent alone."}
{"tested_on": "recombinant NL-Rluc virus (NL4-3 with Renilla Luciferase gene) in MT-2 cells", "experiment": "Inhibition of HIV replication (NL-Rluc luciferase reporter virus, MT-2 cells)", "type": "cell-based, human immunodeficiency virus (HIV)", "conditions": "NL43, 120 h, read-out: Activity", "units": {"EC50": "µM"}}
{"smiles": "COc1ccc(-c2c(C(OC(C)(C)C)C(=O)O)c(C)nc3cc(-c4ccccc4)nn23)c(F)c1", "note": "(centres unmarked) [Example 63]", "EC50": "> 1"}
{"smiles": "Cc1nc2cc(-c3ccccc3)nn2c(-c2cc3ccccc3o2)c1C(OC(C)(C)C)C(=O)O", "note": "(centres unmarked) [Example 64]", "EC50": "> 1"}
{"smiles": "Cc1nc2cc(-c3ccccc3)nn2c(-c2ccc3c4c(cccc24)CC3)c1C(OC(C)(C)C)C(=O)O", "note": "(centres unmarked) [Example 65]", "EC50": "> 1"}
{"smiles": "Cc1nc2cc(-c3ccccc3)nn2c(-c2ccc(C(C)(C)C)cc2)c1C(OC(C)(C)C)C(=O)O", "note": "(centres unmarked) [Example 66]", "EC50": "> 1"}
{"smiles": "Cc1nc2cc(-c3ccccc3)nn2c(-c2cc3ccccc3s2)c1C(OC(C)(C)C)C(=O)O", "note": "(centres unmarked) [Example 67]", "EC50": "> 1"}
{"smiles": "Cc1nc2cc(-c3ccccc3)nn2c(-c2csc3ccccc23)c1C(OC(C)(C)C)C(=O)O", "note": "(centres unmarked) [Example 68]", "EC50": "> 1"}
{"smiles": "Cc1nc2cc(-c3ccccc3)nn2c(-c2cccc3cccnc23)c1C(OC(C)(C)C)C(=O)O", "note": "(centres unmarked) [Example 69]", "EC50": "> 1"}
{"smiles": "Cc1nc2cc(-c3ccccc3)nn2c(-c2ccc3[nH]ccc3c2)c1C(OC(C)(C)C)C(=O)O", "note": "(centres unmarked) [Example 70]", "EC50": "> 1"}
{"smiles": "Cc1nc2cc(-c3ccccc3)nn2c(-c2cccc3ncccc23)c1C(OC(C)(C)C)C(=O)O", "note": "(centres unmarked) [Example 71]", "EC50": "> 1"}
{"smiles": "Cc1nc2cc(-c3ccccc3)nn2c(-c2cccc3[nH]ccc23)c1C(OC(C)(C)C)C(=O)O", "note": "(centres unmarked) [Example 72]", "EC50": "> 1"}
{"smiles": "Cc1nc2cc(-c3ccccc3)nn2c(-c2cccc3cnccc23)c1C(OC(C)(C)C)C(=O)O", "note": "(centres unmarked) [Example 73]", "EC50": "> 1"}
{"smiles": "Cc1nc2cc(-c3ccccc3)nn2c(-c2ccc3nccnc3c2)c1C(OC(C)(C)C)C(=O)O", "note": "(centres unmarked) [Example 74]", "EC50": "> 1"}
{"smiles": "Cc1nc2cc(-c3ccccc3)nn2c(-c2ccc(N(C)C)cc2)c1C(OC(C)(C)C)C(=O)O", "note": "(centres unmarked) [Example 75]", "EC50": "> 1"}
{"smiles": "Cc1nc2cc(-c3ccccc3)nn2c(-c2ccc3cn[nH]c3c2)c1C(OC(C)(C)C)C(=O)O", "note": "(centres unmarked) [Example 76]", "EC50": "> 1"}
{"smiles": "Cc1ccc(-c2c(C(OC(C)(C)C)C(=O)O)c(C)nc3cc(-c4ccccc4)nn23)cn1", "note": "(centres unmarked) [Example 77]", "EC50": "> 1"}
{"smiles": "Cc1nc2cc(-c3ccccc3)nn2c(-c2cnc3[nH]ccc3c2)c1C(OC(C)(C)C)C(=O)O", "note": "(centres unmarked) [Example 78]", "EC50": "> 1"}
{"smiles": "Cc1nc2cc(-c3ccccc3)nn2c(-c2ccc3ccncc3c2)c1C(OC(C)(C)C)C(=O)O", "note": "(centres unmarked) [Example 79]", "EC50": "> 1"}
{"smiles": "Cc1nc2cc(-c3ccccc3)nn2c(-c2cccc3cn[nH]c23)c1C(OC(C)(C)C)C(=O)O", "note": "(centres unmarked) [Example 80]", "EC50": "> 1"}
{"smiles": "Cc1nc2cc(-c3ccccc3)nn2c(-c2ccc(Cl)cc2Cl)c1C(OC(C)(C)C)C(=O)O", "note": "(centres unmarked) [Example 81]", "EC50": "> 1"}
{"smiles": "Cc1nc2cc(-c3ccccc3)nn2c(-c2ccc(F)c(Cl)c2)c1C(OC(C)(C)C)C(=O)O", "note": "(centres unmarked) [Example 82]", "EC50": "> 1"}
{"smiles": "Cc1nc2cc(-c3ccccc3)nn2c(-c2ccc(F)c(F)c2)c1C(OC(C)(C)C)C(=O)O", "note": "(centres unmarked) [Example 83]", "EC50": "> 1"}
{"smiles": "Cc1nc2cc(-c3ccccc3)nn2c(-c2ccc(Cl)c(Cl)c2)c1C(OC(C)(C)C)C(=O)O", "note": "(centres unmarked) [Example 84]", "EC50": "> 1"}
{"smiles": "Cc1nc2cc(-c3ccccc3)nn2c(-c2cccc(Cl)c2Cl)c1C(OC(C)(C)C)C(=O)O", "note": "(centres unmarked) [Example 85]", "EC50": "> 1"}
{"smiles": "Cc1nc2cc(-c3ccccc3)nn2c(-c2ccc(Cl)c(F)c2)c1C(OC(C)(C)C)C(=O)O", "note": "(centres unmarked) [Example 86]", "EC50": "> 1"}
{"smiles": "Cc1nc2cc(-c3ccccc3)nn2c(-c2ccc(C)c3ccccc23)c1C(OC(C)(C)C)C(=O)O", "note": "(centres unmarked) [Example 87]", "EC50": "> 1"}
{"smiles": "COc1ccc(-c2c(C(OC(C)(C)C)C(=O)O)c(C)nc3cc(-c4ccccc4)nn23)cc1C", "note": "(centres unmarked) [Example 88]", "EC50": "> 1"}
{"smiles": "Cc1nc2cc(-c3ccccc3)nn2c(-c2ccc3c(c2)OCCCO3)c1C(OC(C)(C)C)C(=O)O", "note": "(centres unmarked) [Example 89]", "EC50": "> 1"}
{"smiles": "Cc1nc2cc(-c3ccccc3)nn2c(-c2ccc(F)cc2Cl)c1C(OC(C)(C)C)C(=O)O", "note": "(centres unmarked) [Example 90]", "EC50": "> 1"}
{"smiles": "Cc1ccc(-c2c(C(OC(C)(C)C)C(=O)O)c(C)nc3cc(-c4ccccc4)nn23)c(C)c1", "note": "(centres unmarked) [Example 91]", "EC50": "> 1"}
{"smiles": "COc1ccc(-c2cc3nc(C)c(C(OC(C)(C)C)C(=O)O)c(-c4cc(F)c5c(c4C)CCCO5)n3n2)cc1", "note": "(centres unmarked) [Example 92, 2-tert-Butoxy-2-(7-(8-fluoro-5-methylchroman-6-yl)-2-(4-methoxyphenyl)-5-methylpyrazolo[1,5-a]pyrimidin-6-yl)acetic acid, TFA salt]", "EC50": "0.1 to 1"}
{"smiles": "Cc1nc2cc(-c3cccc(OCc4ccccc4)c3)nn2c(-c2cc(F)c3c(c2C)CCCO3)c1C(OC(C)(C)C)C(=O)O", "note": "(centres unmarked) [Example 93, 2-(2-(3-(Benzyloxy)phenyl)-7-(8-fluoro-5-methylchroman-6-yl)-5-methylpyrazolo[1,5-a]pyrimidin-6-yl)-2-tert-butoxyacetic acid, TFA salt]", "EC50": "< 0.1"}
{"smiles": "Cc1nc2cc(-c3cccc(OCc4ccccc4)c3)nn2c(-c2cc(F)c3c(c2C)CCCO3)c1[C@H](OC(C)(C)C)C(=O)O", "note": "[Example 94, (2S)-2-(2-(3-(Benzyloxy)phenyl)-7-(8-fluoro-5-methylchroman-6-yl)-5-methyl-pyrazolo[1,5-a]pyrimidin-6-yl)-2-tert-butoxyacetic acid]", "EC50": "< 0.1"}
{"smiles": "Cc1nc2cc(-c3ccc(OCc4ccccc4)cc3)nn2c(-c2cc(F)c3c(c2C)CCCO3)c1C(OC(C)(C)C)C(=O)O", "note": "(centres unmarked) [Example 95, 2-(2-(4-(Benzyloxy)phenyl)-7-(8-fluoro-5-methylchroman-6-yl)-5-methylpyrazolo[1,5-a]pyrimidin-6-yl)-2-tert-butoxyacetic acid, TFA salt]", "EC50": "< 0.1"}
{"smiles": "Cc1nc2cc(-c3ccc(Cl)cc3)nn2c(-c2cc(F)c3c(c2C)CCCO3)c1C(OC(C)(C)C)C(=O)O", "note": "(centres unmarked) [Example 96, 2-tert-Butoxy-2-(2-(4-chlorophenyl)-7-(8-fluoro-5-methylchroman-6-yl)-5-methylpyrazolo[1,5-a]pyrimidin-6-yl)acetic acid, TFA salt]", "EC50": "0.1 to 1"}
{"smiles": "Cc1nc2cc(-c3cccc(Oc4ccccc4)c3)nn2c(-c2cc(F)c3c(c2C)CCCO3)c1C(OC(C)(C)C)C(=O)O", "note": "(centres unmarked) [Example 97, 2-tert-Butoxy-2-(7-(8-fluoro-5-methylchroman-6-yl)-5-methyl-2-(3-phenoxyphenyl)pyrazolo[1,5-a]pyrimidin-6-yl)acetic acid, TFA salt]", "EC50": "< 0.1"}
{"smiles": "Cc1ccccc1-c1cc2nc(C)c(C(OC(C)(C)C)C(=O)O)c(-c3cc(F)c4c(c3C)CCCO4)n2n1", "note": "(centres unmarked) [Example 98, 2-tert-Butoxy-2-(7-(8-fluoro-5-methylchroman-6-yl)-5-methyl-2-o-tolylpyrazolo[1,5-a]pyrimidin-6-yl)acetic acid, TFA salt]", "EC50": "> 1"}
{"smiles": "COc1cccc(-c2cc3nc(C)c(C(OC(C)(C)C)C(=O)O)c(-c4cc(F)c5c(c4C)CCCO5)n3n2)c1", "note": "(centres unmarked) [Example 99, 2-tert-Butoxy-2-(7-(8-fluoro-5-methylchroman-6-yl)-2-(3-methoxyphenyl)-5-methylpyrazolo[1,5-a]pyrimidin-6-yl)acetic acid]", "EC50": "0.1 to 1"}
{"smiles": "CCc1ccc(-c2cc3nc(C)c(C(OC(C)(C)C)C(=O)O)c(-c4cc(F)c5c(c4C)CCCO5)n3n2)cc1", "note": "(centres unmarked) [Example 100, 2-tert-Butoxy-2-(2-(4-ethylphenyl)-7-(8-fluoro-5-methylchroman-6-yl)-5-methylpyrazolo[1,5-a]pyrimidin-6-yl)acetic acid, TFA salt]", "EC50": "0.1 to 1"}
{"smiles": "Cc1nc2cc(-c3cccc(OCc4ccc(F)cc4)c3)nn2c(-c2cc(F)c3c(c2C)CCCO3)c1C(OC(C)(C)C)C(=O)O", "note": "(centres unmarked) [Example 101, 2-tert-Butoxy-2-(7-(8-fluoro-5-methylchroman-6-yl)-2-(3-(4-fluorobenzyloxy)phenyl)-5-methylpyrazolo[1,5-a]pyrimidin-6-yl)acetic acid, TFA salt]", "EC50": "< 0.1"}
{"smiles": "Cc1nc2cc(-c3cccc(OCc4ccccc4Cl)c3)nn2c(-c2cc(F)c3c(c2C)CCCO3)c1C(OC(C)(C)C)C(=O)O", "note": "(centres unmarked) [Example 102, 2-tert-Butoxy-2-(2-(3-(2-chlorobenzyloxy)phenyl)-7-(8-fluoro-5-methylchroman-6-yl)-5-methylpyrazolo[1,5-a]pyrimidin-6-yl)acetic acid, TFA salt]", "EC50": "< 0.1"}
{"smiles": "COc1ccc(COc2cccc(-c3cc4nc(C)c(C(OC(C)(C)C)C(=O)O)c(-c5cc(F)c6c(c5C)CCCO6)n4n3)c2)cc1", "note": "(centres unmarked) [Example 103, 2-tert-Butoxy-2-(7-(8-fluoro-5-methylchroman-6-yl)-2-(3-(4-methoxybenzyloxy)phenyl)-5-methylpyrazolo[1,5-a]pyrimidin-6-yl)acetic acid, TFA salt]", "EC50": "< 0.1"}
{"smiles": "Cc1nc2cc(-c3cccc(OCc4cccc(Cl)c4)c3)nn2c(-c2cc(F)c3c(c2C)CCCO3)c1C(OC(C)(C)C)C(=O)O", "note": "(centres unmarked) [Example 104, 2-tert-Butoxy-2-(2-(3-(3-chlorobenzyloxy)phenyl)-7-(8-fluoro-5-methylchroman-6-yl)-5-methylpyrazolo[1,5-a]pyrimidin-6-yl)acetic acid, TFA salt]", "EC50": "< 0.1"}
{"smiles": "Cc1ccc(-c2cc3nc(C)c(C(OC(C)(C)C)C(=O)O)c(-c4cc(F)c5c(c4C)CCCO5)n3n2)cc1OCc1ccccc1", "note": "(centres unmarked) [Example 105, 2-(2-(3-(Benzyloxy)-4-methylphenyl)-7-(8-fluoro-5-methylchroman-6-yl)-5-methylpyrazolo[1,5-a]pyrimidin-6-yl)-2-tert-butoxyacetic acid]", "EC50": "< 0.1"}
{"smiles": "Cc1nc2cc(-c3cccc(OCc4ccc(Cl)cc4)c3)nn2c(-c2cc(F)c3c(c2C)CCCO3)c1C(OC(C)(C)C)C(=O)O", "note": "(centres unmarked) [Example 106, 2-tert-Butoxy-2-(2-(3-(4-chlorobenzyloxy)phenyl)-7-(8-fluoro-5-methylchroman-6-yl)-5-methylpyrazolo[1,5-a]pyrimidin-6-yl)acetic acid, TFA salt]", "EC50": "< 0.1"}
{"smiles": "Cc1nc2cc(-c3ccnc(OCc4ccccc4)c3)nn2c(-c2cc(F)c3c(c2C)CCCO3)c1C(OC(C)(C)C)C(=O)O", "note": "(centres unmarked) [Example 107, 2-(2-(2-(Benzyloxy)pyridin-4-yl)-7-(8-fluoro-5-methylchroman-6-yl)-5-methylpyrazolo[1,5-a]pyrimidin-6-yl)-2-tert-butoxyacetic acid, TFA salt]", "EC50": "< 0.1"}
{"tested_on": "recombinant NL-Rluc virus (NL4-3 with Renilla Luciferase gene) in MT-2 cells", "experiment": "Inhibition of HIV replication (NL-Rluc luciferase reporter virus, MT-2 cells)", "type": "cell-based, human immunodeficiency virus (HIV)", "conditions": "NL43, 120 h, read-out: EC50 μM", "units": {"EC50": "µM"}}
{"smiles": "Cc1nc2cc(-c3cccc(OCc4ccccc4)c3)nn2c(-c2cc(F)c3c(c2C)CCCO3)c1C(OC(C)(C)C)C(=O)O", "note": "(centres unmarked) [Example 93, 2-(2-(3-(Benzyloxy)phenyl)-7-(8-fluoro-5-methylchroman-6-yl)-5-methylpyrazolo[1,5-a]pyrimidin-6-yl)-2-tert-butoxyacetic acid, TFA salt]", "EC50": 0.1}
{"smiles": "Cc1nc2cc(-c3cccc(Oc4ccccc4)c3)nn2c(-c2cc(F)c3c(c2C)CCCO3)c1C(OC(C)(C)C)C(=O)O", "note": "(centres unmarked) [Example 97, 2-tert-Butoxy-2-(7-(8-fluoro-5-methylchroman-6-yl)-5-methyl-2-(3-phenoxyphenyl)pyrazolo[1,5-a]pyrimidin-6-yl)acetic acid, TFA salt]", "EC50": 0.06}
{"smiles": "COc1cccc(-c2cc3nc(C)c(C(OC(C)(C)C)C(=O)O)c(-c4cc(F)c5c(c4C)CCCO5)n3n2)c1", "note": "(centres unmarked) [Example 99, 2-tert-Butoxy-2-(7-(8-fluoro-5-methylchroman-6-yl)-2-(3-methoxyphenyl)-5-methylpyrazolo[1,5-a]pyrimidin-6-yl)acetic acid]", "EC50": 0.35}
{"smiles": "Cc1nc2cc(-c3cccc(OCc4ccc(Cl)cc4)c3)nn2c(-c2cc(F)c3c(c2C)CCCO3)c1C(OC(C)(C)C)C(=O)O", "note": "(centres unmarked) [Example 106, 2-tert-Butoxy-2-(2-(3-(4-chlorobenzyloxy)phenyl)-7-(8-fluoro-5-methylchroman-6-yl)-5-methylpyrazolo[1,5-a]pyrimidin-6-yl)acetic acid, TFA salt]", "EC50": 0.04}
{"smiles": "Cc1nc2cc(-c3ccnc(OCc4ccccc4)c3)nn2c(-c2cc(F)c3c(c2C)CCCO3)c1C(OC(C)(C)C)C(=O)O", "note": "(centres unmarked) [Example 107, 2-(2-(2-(Benzyloxy)pyridin-4-yl)-7-(8-fluoro-5-methylchroman-6-yl)-5-methylpyrazolo[1,5-a]pyrimidin-6-yl)-2-tert-butoxyacetic acid, TFA salt]", "EC50": 0.008}
